Experiments:
[1] = target: T1, PRDX1 (Homo sapiens, UniProt Q06830); assay: Trx-TrxR-NADPH coupling peroxiredoxin activity assay, PRDX1; assay type: biochemical; conditions: recombinant PRDX1, 1.5 h incubation, mean ± SEM, triplicate; read-out: IC50 against the peroxidase activity of PRDX1
T1 sequence (Q06830 1-199): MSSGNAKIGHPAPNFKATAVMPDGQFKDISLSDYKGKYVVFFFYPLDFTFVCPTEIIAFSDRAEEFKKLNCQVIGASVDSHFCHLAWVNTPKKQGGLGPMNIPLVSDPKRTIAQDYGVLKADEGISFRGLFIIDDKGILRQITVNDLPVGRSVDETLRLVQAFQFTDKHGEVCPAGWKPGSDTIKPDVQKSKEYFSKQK

[2] = tested on: recombinant PRDX1; assay: Click labeling assay; assay type: binding, human; conditions: recombinant PRDX1, streptavidin HRP blot; competed by Celastrol
Experimental: The click labeling method used in this paper refers to these researches.[49],[50] Alkynylated compounds were incubated with recombinant proteins for 1 h in buffer C (20 mM Hepes, […]). For some PRDX1 wild type samples, unalkynylated compounds were pre-incubated with proteins for 0.5 h before incubating with alkynylated compounds. The work concentration of proteins is 1 µM. After compounds incubation, the protein samples were subjected to click reaction procedures through terminal alkynyl group as previously described.[49],[50] Protein samples were resolved with SDS-PAGE and blotted with streptavidin HRP (1:10000, Thermo Scientific) and anti-PRDX1 antibody (8499, 1:1000, Cell Signaling Technology).

SMILES | melting point [°C] | IC50 [1] [nM] | covalent binding to PRDX1 by click labeling (in words) [2]
C#CCCOC(=O)[C@@H](C)NC(=O)N[C@]1(C)CC[C@]2(C)CC[C@]3(C)C4=CC=C5C(=CC(=O)C(O)=C5C)[C@]4(C)CC[C@@]3(C)[C@@H]2C1 | 123.4 to 127.8 |  | 
COC(=O)[C@H](Cc1ccccc1)NC(=O)N[C@]1(C)CC[C@]2(C)CC[C@]3(C)C4=CC=C5C(=CC(=O)C(O)=C5C)[C@]4(C)CC[C@@]3(C)[C@@H]2C1 [19-266, Methyl (((2R,4aS,6aS,12bR,14aS,14bR)-10-hydroxy-2,4a,6a,9,12b,14a-hexamethyl-11-oxo-1,2,3,4,4a,5,6,6a,11,12b,13,14,14a,14b-tetradecahydropicen-2-yl)carbamoyl)-L-phenylalaninate] | 151.9 to 155.7 | 280 ± 40 | 
C#CCOCCOCCNC(=O)[C@]1(C)CC[C@]2(C)CC[C@]3(C)C4=CC=C5C(=CC(=O)C(O)=C5C)[C@]4(C)CC[C@@]3(C)[C@@H]2C1 [alkynylated Celastrol, (2R,4aS,6aS,12bR,14aS,14bR)-10-hydroxy-2,4a,6a,9,12b,14a-hexamethyl-11-oxo-N-(2-(2-(prop-2-yn-1-yloxy)ethoxy)ethyl)-1,2,3,4,4a,5,6,6a,11,12b,13,14,14a,14b-tetradecahydropicene-2-carboxamide] | 64.7 to 68 |  | covalently bound to PRDX1
